Assay results from paper PMC3347531, “Mutation of Residue βF71 of Escherichia coli Penicillin Acylase Results in Enhanced Enantioselectivity and Improved Catalytic Properties” (Acta Naturae, 2009).

Molecular target: T1, penicillin acylase (PA) from Escherichia coli (Escherichia coli, UniProt P06875)
T1 construct: gene pac; mature alpha/beta heterodimer processed from one precursor; recombinant from plasmid pEC in E. coli, purified
Test: initial rate hydrolysis, enantioselectivity from kcat/Km ratio
Type: biochemical

T1 sequence (P06875 27-235): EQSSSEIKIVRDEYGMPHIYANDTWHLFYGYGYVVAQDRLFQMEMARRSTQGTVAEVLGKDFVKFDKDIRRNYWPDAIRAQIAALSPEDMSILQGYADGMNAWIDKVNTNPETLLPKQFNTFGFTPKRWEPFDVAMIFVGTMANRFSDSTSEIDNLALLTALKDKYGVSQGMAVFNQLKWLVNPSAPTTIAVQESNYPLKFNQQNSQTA
T1 sequence (P06875 290-846): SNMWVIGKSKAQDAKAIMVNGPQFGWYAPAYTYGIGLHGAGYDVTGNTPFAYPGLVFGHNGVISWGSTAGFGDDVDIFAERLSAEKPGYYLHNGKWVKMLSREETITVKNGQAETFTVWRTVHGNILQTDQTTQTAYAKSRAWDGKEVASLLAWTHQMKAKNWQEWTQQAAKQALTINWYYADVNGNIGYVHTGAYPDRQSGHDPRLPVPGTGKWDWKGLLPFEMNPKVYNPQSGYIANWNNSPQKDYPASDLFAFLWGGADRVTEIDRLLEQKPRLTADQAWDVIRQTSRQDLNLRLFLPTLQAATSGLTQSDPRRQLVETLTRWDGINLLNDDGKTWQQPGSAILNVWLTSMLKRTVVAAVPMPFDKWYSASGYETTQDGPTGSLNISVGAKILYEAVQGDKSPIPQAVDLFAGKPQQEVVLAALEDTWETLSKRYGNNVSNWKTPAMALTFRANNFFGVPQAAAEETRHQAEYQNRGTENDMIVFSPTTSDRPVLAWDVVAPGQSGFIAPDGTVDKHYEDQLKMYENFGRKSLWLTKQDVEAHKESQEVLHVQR

O=C(Cc1ccccc1)N[C@H](C(=O)O)c1ccccc1 [N-phenylacetyl-L-phenylglycine]
initial rate hydrolysis, enantioselectivity from kcat/Km ratio: WT PA exhibits already a very good chiral discrimination of N-phenylacetyl-phenylglycine enantiomers
